# Reference: US9874563B2, “Detecting and quantifying cryptic HIV replication” (UNIVERSITY OF DELAWARE, priority 2012, dated 2018)
# “And” between values parts separate entries of the source, which are not always exact repeats. Equal values may be shown once.
# Tests used:
# [1] = test system: HIV; conditions: duration of the experiment; 13 patients of the experimental group; cited from earlier work
# [2] = test system: HIV; test: Model fit of 2-LTR dynamics following raltegravir intensification (nonlinear mixed-effects, Bayesian MCMC); design: species or system human
# From the text: Previous work has been done on identifying HIV model parameters from experiments involving the use of integrase inhibitors. These models, however, considered only standard viral load measurements, not measurements of 2-LTR circle frequency. We introduce a simple model of the dynamics of the concentrations of actively infected cells y(t) and cells containing 2-LTR episomes c(t) in the site of episome formation. We model the behavior both in the absence of raltegravir uII=0 and in the presence of raltegravir uII=1.
# The reproductive ratio of the virus prior to raltegravir intensification is R, and the reproductive ratio after raltegravir intensification is (1−ηII)R, where ηII is the effectiveness of raltegravir at interrupting infection events that would otherwise have occurred without intensification. The reproductive ratios are defined as the average number of infected cells created per infected cell in a single generation. If the virus was replicating efficiently prior to intensification (R0>1), then the measured R would be approximately equal to 1 at equilibrium, as the efficient replication would necessarily be target cell limited. If the infection is controlled prior to intensification (R0<1), then the measured reproductive ratio R will be approximately equal to R0.
# 2-LTR circles may also be formed at an integrase inhibitor-enhanced rate in the presence of raltegravir. The rate at which infection events are interrupted by raltegravir after intensification is ηIIRay which, when multiplied by the probability 0<kII<1 that the interruption of an infection even leads to the formation of a 2-LTR episome, gives us the rate of integrase inhibitor-enhances 2-LTR formation kIIηIIRay. φ≧0 is the ratio between the intrinsic rate and the raltegravir-enhanced rate of 2-LTR formation.
# These dynamics can be written in the form of Equation 1: y=−(1−(1−ηIIuII)R)ay+ye ċ=φkII(1−ηIIuII)Ray+kIIηIIuIIRay−δc (1)
# To reduce the parametric covariance, we introduced a re-parametrized parameter A=kIIye/δ to replace kIIye. […]
# The posterior distribution of the parameter likelihood given the measured 2-LTR values was computed using a Bayesian Markov-Chain Monte-Carlo method with Gibbs Sampling, as in References 56, 75, 78 and 79 with noninformative prior distributions for the parameters as follows:
# Markov-Chain Monte-Carlo methods were used to fit Equation 5 to the experimental data for 13 patients, with shared parameters {θ, δ} and patient-specific parameters {R; ηII, kIIye}, using the measurement uncertainty model described in the Materials and Methods section. […] The maximum-likelihood predicted 2-LTR concentrations for each patient, together with the 95% prediction interval, is shown compared to the measured data in FIG. 3.
# [3] = test system: HIV 2-LTR circles; conditions: cited from earlier work
smiles,measurement,setting,value
Cc1nnc(C(=O)NC(C)(C)c2nc(C(=O)NCc3ccc(F)cc3)c(O)c(=O)n2C)o1 [raltegravir],plasma viral load,[1],remained below the standard limit of detection
same,effect on level of cryptic replication,"[2]; addition of raltegravir to HAART, interpretation of the 2-LTR data",reduces the level of cryptic replication to undetectable levels
same,increase in likelihood of 2-LTR formation when raltegravir interrupts integration,[2]; from 95% credible interval of φ,250-1000 times
same,"ηII (ratio-reduction in R following raltegravir intensification; drug efficacy of raltegravir), MLE","[2]; maximum likelihood (posterior mode), patient-specific fitted parameter, one table row per patient",0.01 (3×) and 0.19 and 0.02 and 0.49 and 0.77 and 0.05 and 0.03 and 0.79 and 0.81 and 0.99 and 0.08
same,"ηII (ratio-reduction in R following raltegravir intensification; drug efficacy of raltegravir), Median","[2]; posterior median, patient-specific fitted parameter, one table row per patient",0.78 and 0.21 and 0.02 and 0.53 (3×) and 0.74 and 0.38 and 0.04 and 0.39 and 0.50 and 0.55 and 0.12
same,patients with 2-LTR containing cells observed,"[3]; HAART intensified by raltegravir for 48 weeks, experimental group of 45",13/45 and 13 of the 45
same,"2-LTR quantification, Week Post-Intensification 0","[3]; week 0 (baseline at start of raltegravir intensification), individual HAART-suppressed patients, one table row per patient, censoring limit 1.20",<1.20 2-LTR per 10^6 PBMC (7×) and 1.76 2-LTR per 10^6 PBMC and 38.62 2-LTR per 10^6 PBMC and 35.30 2-LTR per 10^6 PBMC and 9.98 2-LTR per 10^6 PBMC and 2.99 2-LTR per 10^6 PBMC
same,"2-LTR quantification, Week Post-Intensification 2","[3]; week 2 of raltegravir intensification, individual patients, one table row per patient, censoring limit 1.20",21.47 2-LTR per 10^6 PBMC and 48.16 2-LTR per 10^6 PBMC and 72.77 2-LTR per 10^6 PBMC and 30.55 2-LTR per 10^6 PBMC and 5.84 2-LTR per 10^6 PBMC and 12.98 2-LTR per 10^6 PBMC and 3.05 2-LTR per 10^6 PBMC and <1.20 2-LTR per 10^6 PBMC (4×) and 23.69 2-LTR per 10^6 PBMC and 1.98 2-LTR per 10^6 PBMC
same,"2-LTR quantification, Week Post-Intensification 4","[3]; week 4 of raltegravir intensification, individual patients, one table row per patient, censoring limit 1.20",<1.20 2-LTR per 10^6 PBMC (3×) and 9.07 2-LTR per 10^6 PBMC and 5.37 2-LTR per 10^6 PBMC and 13.42 2-LTR per 10^6 PBMC and 3.19 2-LTR per 10^6 PBMC and 2.68 2-LTR per 10^6 PBMC and 24.75 2-LTR per 10^6 PBMC and 21.07 2-LTR per 10^6 PBMC and 3.03 2-LTR per 10^6 PBMC
same,"2-LTR quantification, Week Post-Intensification 12","[3]; week 12 of raltegravir intensification, individual patients, one table row per patient, censoring limit 1.20",10.38 2-LTR per 10^6 PBMC and 7.38 2-LTR per 10^6 PBMC and 1.26 2-LTR per 10^6 PBMC and <1.20 2-LTR per 10^6 PBMC (4×) and 1.61 2-LTR per 10^6 PBMC and 9.55 2-LTR per 10^6 PBMC and 39.64 2-LTR per 10^6 PBMC and 30.11 2-LTR per 10^6 PBMC
same,"2-LTR quantification, Week Post-Intensification 24","[3]; week 24 of raltegravir intensification, individual patients, one table row per patient, censoring limit 1.20",2.73 2-LTR per 10^6 PBMC and 2.20 2-LTR per 10^6 PBMC and <1.20 2-LTR per 10^6 PBMC (8×) and 1.88 2-LTR per 10^6 PBMC and 1.29 2-LTR per 10^6 PBMC
same,"2-LTR quantification, Week Post-Intensification 48","[3]; week 48 of raltegravir intensification, individual patients, one table row per patient, censoring limit 1.20",<1.20 2-LTR per 10^6 PBMC (9×) and 7.04 2-LTR per 10^6 PBMC
